Data set [1] concerns the target T1, cytochrome P450 2D6 (CYP2D6) (Homo sapiens, UniProt P10635). Description: UV-vis spectral binding titration.
Target sequence in this assay (P10635 whole entry): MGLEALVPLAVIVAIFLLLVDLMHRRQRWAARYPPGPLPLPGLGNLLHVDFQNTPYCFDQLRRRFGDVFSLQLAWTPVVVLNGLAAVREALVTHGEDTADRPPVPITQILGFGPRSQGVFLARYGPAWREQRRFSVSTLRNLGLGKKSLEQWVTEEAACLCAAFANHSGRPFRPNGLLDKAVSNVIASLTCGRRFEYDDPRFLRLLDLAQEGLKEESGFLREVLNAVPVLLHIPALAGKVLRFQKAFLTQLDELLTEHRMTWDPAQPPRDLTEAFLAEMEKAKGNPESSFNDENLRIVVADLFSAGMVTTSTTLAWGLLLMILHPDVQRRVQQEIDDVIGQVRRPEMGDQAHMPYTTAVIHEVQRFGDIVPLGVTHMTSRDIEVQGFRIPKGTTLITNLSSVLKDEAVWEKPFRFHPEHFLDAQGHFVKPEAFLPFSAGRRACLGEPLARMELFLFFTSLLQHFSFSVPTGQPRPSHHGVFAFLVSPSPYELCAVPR
For data set [2], the target named is T1, cytochrome P450 2D6 (CYP2D6). Description: NADPH-dependent inactivation of bufuralol […]'-hydroxylation in CYP2D6 Supersomes. The format is cell-based.
Target sequence in this assay (P16435 2-677): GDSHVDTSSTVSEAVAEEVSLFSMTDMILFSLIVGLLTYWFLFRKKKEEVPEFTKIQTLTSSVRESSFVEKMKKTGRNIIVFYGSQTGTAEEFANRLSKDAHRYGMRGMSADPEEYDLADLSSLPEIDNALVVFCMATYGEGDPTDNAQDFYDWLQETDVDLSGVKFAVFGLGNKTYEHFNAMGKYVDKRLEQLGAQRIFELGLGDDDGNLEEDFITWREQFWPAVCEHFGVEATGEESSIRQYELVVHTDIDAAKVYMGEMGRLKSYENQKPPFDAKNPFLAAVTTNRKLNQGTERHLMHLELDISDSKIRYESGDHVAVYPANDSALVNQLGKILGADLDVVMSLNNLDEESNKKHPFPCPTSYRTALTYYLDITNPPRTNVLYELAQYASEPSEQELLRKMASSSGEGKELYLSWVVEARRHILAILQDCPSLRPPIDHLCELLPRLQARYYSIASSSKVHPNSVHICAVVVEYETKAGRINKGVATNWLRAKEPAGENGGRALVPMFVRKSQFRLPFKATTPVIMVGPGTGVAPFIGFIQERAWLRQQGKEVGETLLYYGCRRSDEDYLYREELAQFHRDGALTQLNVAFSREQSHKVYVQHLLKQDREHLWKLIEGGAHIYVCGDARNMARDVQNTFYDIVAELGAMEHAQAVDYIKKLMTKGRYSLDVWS
Target sequence in this assay (P10635 whole entry): as the sequence (P10635 whole entry) above

For `CCc1nc(C)c(CN2CCN(c3cc(C(F)(F)F)ccn3)CC2)[nH]1` [EMTPP], in data set [1], the affinity, expressed as Kd, was 29.8 ± 3.04 µM.
Turning to `CNC(C)Cc1ccc2c(c1)OCO2` (centres unmarked) [MDMA], the partition ratio in data set [2] came out at 91.

(Values after article PMC4037324 (Drug metabolism letters, 2012).)
